Measured values: US11090304B2 (Amgen Inc., priority 2018, dated 2021)
Like-named read-outs stand apart in the source and are kept apart here.

How the values were obtained:
[1] = target: GDP-bound KRAS protein (aa 1-169), containing both G12C and C118A amino acid substitutions (Homo sapiens, UniProt P01116, C118A/G12C); assay: Coupled nucleotide exchange assay (SOS-mediated, AlphaScreen); format: biochemical; conditions: 5 min compound pre-incubation
[2] = tested on: Phosphorylation of ERK1/2 in MIA PaCa-2 cells; assay: Phospho-ERK1/2 MSD assay in MIA PaCa-2 cells; format: cell-based; conditions: read-out: p-ERK IC50 (2 h; MIA PaCa-2), 2 h compound treatment
Summary of the method: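 Following a 2 or 4 h incubation with titrated compound, cells receive a 10 min pulse of 10 ng/mL EGF. Phospho-ERK1/2 in RIPA lysates is then quantified by MSD immunoassay, and IC50 values come from a four-parameter logistic model.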

Chain of GDP-bound KRAS protein (aa 1-169), containing both G12C and C118A amino acid substitutions (P01116 1-169 isoform P01116-2 G12C/C118A): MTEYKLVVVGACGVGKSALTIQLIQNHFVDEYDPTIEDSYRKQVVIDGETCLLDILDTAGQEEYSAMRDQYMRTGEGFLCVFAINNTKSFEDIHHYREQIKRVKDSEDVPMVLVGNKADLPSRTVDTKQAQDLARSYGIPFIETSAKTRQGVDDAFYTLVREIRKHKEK

Coupled exchange IC50 (5 min) [1]	IC50 ([2]; Homo sapiens, MIA PaCa-2, 2 h) [nM]	IC50 [2] [nM]	IC50 ([1]; read-out: Coupled exchange IC50 (5 min)) [nM]	SMILES
0.136 | nda μM	347	–	–	C=CC(=O)N1CCN(c2nc(=O)n(-c3c(C)ccnc3C(C)C)c3nc(-c4c(O)cccc4F)c(C)cc23)[C@@H](C)C1 [Example 74-3, 7-(2-fluoro-6-hydroxyphenyl)-6-methyl-1-(4-methyl-2-(2-propanyl)-3-pyridinyl)-4-((2S)-2-methyl-4-(2-propenoyl)-1-piperazinyl)pyrido[2,3-d]pyrimidin-2(1H)-one]
0.055 | nda μM	92	–	–	C=CC(=O)N1CCN(c2nc(=O)n(-c3c(C)cccc3C3CC3)c3nc(-c4c(O)cccc4F)c(Cl)cc23)[C@@H](C)C1 [Example 55-15, 6-chloro-1-(2-cyclopropyl-6-methylphenyl)-7-(2-fluoro-6-hydroxyphenyl)-4-((2S)-2-methyl-4-(2-propenoyl)-1-piperazinyl)pyrido[2,3-d]pyrimidin-2(1H)-one]
0.067 | nda μM	101	–	–	C=CC(=O)N1CCN(c2nc(=O)n(-c3c(C)ccnc3C(C)C)c3nc(-c4cc(F)ccc4F)c(Cl)cc23)[C@@H](C)C1 (atropisomer, axis not shown; (M)) [Example 73-2, (M)-6-chloro-7-(2,5-difluorophenyl)-1-(4-methyl-2-(2-propanyl)-3-pyridinyl)-4-((2S)-2-methyl-4-(2-propenoyl)-1-piperazinyl)pyrido[2,3-d]pyrimidin-2(1H)-one]
0.182 | nda μM	211	–	–	C=CC(=O)N1CCN(c2nc(=O)n(-c3c(C)cccc3C(C)C)c3nc(-c4ccccc4F)c(C)cc23)[C@@H](C)C1 (single isomer, unassigned) [Example 102-2]
0.212 | nda μM	311	–	–	C=CC(=O)N1CCN(c2nc(=O)n(-c3ccccc3C(C)C)c3nc(-c4cc(F)ccc4O)c(Cl)cc23)[C@@H](C)C1 (single isomer, unassigned) [Example 54-78-2]
0.668 | nda μM	–	823	–	C=CC(=O)N1CCN(c2nc(=O)n(-c3c(C)cccc3C3CC3)c3nc(-c4ccccc4F)c(Cl)cc23)[C@@H](C)C1 (single isomer, unassigned) [Example 56-5-2]
0.582 | nda μM	926	–	–	C=CC(=O)N1CCN(c2nc(=O)n(-c3ccccc3-c3ccccc3)c3nc(-c4c(O)cccc4F)c(Cl)cc23)[C@@H](C)C1 [Example 54-74, 1-([biphenyl]-2-yl)-6-chloro-7-(2-fluoro-6-hydroxyphenyl)-4-((2S)-2-methyl-4-(2-propenoyl)-1-piperazinyl) pyrido[2,3-d]pyrimidin-2(1H)-one]
0.068 | nda μM	145	–	–	C=CC(=O)N1CCN(c2nc(=O)n(-c3ccccc3S(F)(F)(F)(F)F)c3nc(-c4c(O)cccc4F)c(Cl)cc23)[C@@H](C)C1 (single isomer, unassigned) [Example 56-1-2]
0.118 | nda μM	152	–	–	C=CC(=O)N1CCN(c2nc(=O)n(-c3ccccc3C(C)C)c3nc(-c4ccccc4F)c(C)cc23)[C@@H](C)C1 (single isomer, unassigned) [Example 74-1-2]
0.228 | nda μM	300	–	–	C=CC(=O)N1CCN(c2nc(=O)n(-c3c(C)ccnc3C(C)C)c3nc(-c4ccccc4F)c(C)cc23)[C@@H](C)C1 [Example 74-2, 7-(2-fluorophenyl)-6-methyl-1-(4-methyl-2-(2-propanyl)-3-pyridinyl)-4-((2S)-2-methyl-4-(2-propenoyl)-1-piperazinyl)pyrido[2,3-d]pyrimidin-2(1H)-one]
0.288 | nda μM	348	–	–	C=CC(=O)N1CCN(c2nc(=O)n(-c3c(C)cccc3CC)c3nc(-c4c(O)cccc4F)c(F)cc23)[C@@H](C)C1 (single isomer, unassigned) [Example 57-14-1]
–	–	3920	952	Cc1ccnc(C(C)C)c1-n1c(=O)nc(N2CCN(C(=O)/C=C/CN(C)C)C[C@@H]2C)c2cc(F)c(-c3c(O)cccc3F)nc21 (atropisomer, axis not shown; (M)) [Example 145, (M)-4-((2S)-4-((2E)-4-(Dimethylamino)-2-butenoyl)-2-methyl-piperazinyl)-6-fluoro-7-(2-fluoro-6-hydroxyphenyl)-1-(4-methyl-2-(2-propanyl)-3-pyridinyl)pyrido[2,3-d]pyrimidin-2(1H)-one]
0.264 | nda μM	257	–	–	C=CC(=O)N1CCN(c2nc(=O)n(-c3c(C)ccnc3C(C)C)c3nc(-c4ccc(F)cc4F)c(F)cc23)[C@@H](C)C1 (single isomer, unassigned) [Example 58-10-1]
0.752 | nda μM	239	–	–	C=CC(=O)N1CCN(c2nc(=O)n(-c3ncccc3C(C)C)c3nc(-c4ccccc4F)c(F)cc23)[C@@H](C)C1 [Example 57-9, 6-fluoro-7-(2-fluorophenyl)-4-((2S)-2-methyl-4-(2-propenoyl)-1-piperazinyl)-1-(3-(2-propanyl)-2-pyridinyl)pyrido[2.3-d]pyrimidin-2(1H)-one]
0.26 | nda μM	371	–	–	C=CC(=O)N1CCN(c2nc(=O)n(-c3c(C)cccc3C3CC3)c3nc(-c4c(O)cccc4F)c(F)cc23)[C@@H](C)C1 (single isomer, unassigned) [Example 58-13-2]
0.27 | nda μM	207	–	–	C=CC(=O)N1CCN(c2nc(=O)n(-c3ccccc3C(C)C)c3nc(-c4c(F)cccc4C#N)c(Cl)cc23)[C@@H](C)C1 [Example 98, 2-(6-Chloro-4-((2S)-2-methyl-4-(2-propenoyl)-1-piperazinyl)-2-oxo-1-(2-(2-propanyl)phenyl)-1,2-dihydropyrido[2,3-d]pyrimidin-7-yl)-3-fluorobenzonitrile]
0.125 | nda μM	206	–	–	C=CC(=O)N1CCN(c2nc(=O)n(-c3c(C)cccc3C(C)C)c3nc(-c4nc(N)ccc4Cl)c(Cl)cc23)[C@@H](C)C1 [Example 70-3, 7-(6-amino-3-chloro-2-pyridinyl)-6-chloro-1-(2-methyl-6-(2-propanyl)phenyl)-4-((2S)-2-methyl-4-(2-propenoyl)-1-piperazinyl)pyrido[2,3-d]pyrimidin-2(1H)-one]
0.191 | nda μM	179	–	–	C=CC(=O)N1CCN(c2nc(=O)n(-c3c(C)ncnc3C(C)C)c3nc(-c4ccccc4F)c(Cl)cc23)[C@@H](C)C1 [Example 55-13, 6-chloro-7-(2-fluorophenyl)-1-(4-methyl-6-(2-propanyl)-5-pyrimidinyl)-4-((2S)-2-methyl-4-(2-propenoyl)-1-piperazinyl)pyrido[2,3-d]pyrimidin-2(1H)-one]
0.024 | nda μM	33	–	–	C=CC(=O)N1CCN(c2nc(=O)n(-c3c(C#N)cccc3C(C)C)c3nc(-c4ccccc4F)c(Cl)cc23)[C@@H](C)C1 (single isomer, unassigned) [Example 60-20-2]
0.444 | nda μM	≥ 10000	–	–	C=CC(=O)N1CCN(c2nc(=O)n(-c3c[nH]nc3C3CC3)c3nc(-c4c(O)cccc4F)c(Cl)cc23)[C@@H](C)C1 [Example 55-21, 6-chloro-1-(3-cyclopropyl-1H-pyrazol-4-yl)-7-(2-fluoro-6-hydroxyphenyl)-4-((2S)-2-methyl-4-(2-propenoyl)-1-piperazinyl)pyrido[2,3-d]pyrimidin-2(1H)-one]
